According to ChEMBL document CHEMBL5380835, “Discovery of Clinically Used Octenidine as NRAS Repressor That Effectively Inhibits NRAS-Mutant Melanoma” (J Med Chem, 2023):
Calls of active or inactive are those of the source. No cut-off for these calls is given here.

Tests used:
SK-MEL-2 [1] = test: Cytotoxicity against human SK-MEL-2 cells expressing NRAS mutant assessed as cell growth inhibition incubated for 48 hrs by MTT assay; type: functional, cell-based; conditions: SK-MEL-2, 48 h
[2] = Binding affinity to 5'-FAM-labeled to NRAS RNA G-quadruplex 5'-r(UGUGGGAGGGGCGGGUCUGGG)-3' (unknown origin) assessed as dissociation constant by fluorescence quenching assay
SK-MEL-2 [3] = test: Antiproliferative activity against human SK-MEL-2 cells assessed as inhibition of colony formation at 1.5 uM measured after 10 days by crystal violet staining based assay; type: functional, cell-based; conditions: time 10.0 day
SK-MEL-2 [4] = test: Synergistic cytotoxicity against human SK-MEL-2 cells expressing NRAS mutant assessed as combination index measured for 48 hrs in presence of Rapamycin by MTT assay; type: functional
SK-MEL-2 [5] = test: Synergistic cytotoxicity against human SK-MEL-2 cells expressing NRAS mutant assessed as combination index measured for 48 hrs in presence of MK2206 by MTT assay; type: functional
SK-MEL-2 [6] = test: Synergistic cytotoxicity against human SK-MEL-2 cells expressing NRAS mutant assessed as combination index measured for 48 hrs in presence of LY3214996 by MTT assay; type: functional
SK-MEL-2 [7] = test: Synergistic cytotoxicity against human SK-MEL-2 cells expressing NRAS mutant assessed as combination index measured for 48 hrs in presence of MEK-162 by MTT assay; type: functional
SK-MEL-2 [8] = test: Cytotoxicity against human SK-MEL-2 cells assessed as cell growth inhibition incubated for 24 hrs by MTT assay; type: functional, cell-based; conditions: SK-MEL-2, 24 h
SK-MEL-2 [9] = test: Effect on NRAS protein translation in human SK-MEL-2 cells at 1/2 times IC50 incubated for 24 hrs by Western blot analysis; type: functional, cell-based
SK-MEL-2 [10] = test: Upregulation of NRAS mRNA level in human SK-MEL-2 cells at 1/2 times IC50 incubated for 24 hrs by RT-qPCR analysis; type: functional, cell-based

Compound | Kd [2] [nM] | IC50 (SK-MEL-2 [1]) [nM] | further results
CCCCCCNc1cc[n+](CCCCCCCCCC[n+]2ccc(NCCCCCC)cc2)cc1 | 290 | 910 | 
Cn1nccc1Nc1nccc(-c2cc3c(s2)C(C)(C)N(CCN2CCOCC2)C3=O)n1 [TEMUTERKIB] |  |  | inhibition (SK-MEL-2 [3]): Active; CI (SK-MEL-2 [4]): 0.5; CI (SK-MEL-2 [5]): 0.5
CO[C@H]1C[C@@H]2CC[C@@H](C)[C@@](O)(O2)C(=O)C(=O)N2CCCC[C@H]2C(=O)O[C@H]([C@H](C)C[C@@H]2CC[C@@H](O)[C@H](OC)C2)CC(=O)[C@H](C)/C=C(\C)[C@@H](O)[C@@H](OC)C(=O)[C@H](C)C[C@H](C)/C=C/C=C/C=C/1C [SIROLIMUS] |  |  | CI (SK-MEL-2 [6]): 0.5; CI (SK-MEL-2 [7]): 0.5; inhibition (SK-MEL-2 [3]): Active
CN(C)c1ccc(C(=C2C=CC(=[N+](C)C)C=C2)c2ccc(N(C)C)cc2)cc1 [GENTIAN VIOLET] |  | 1360 | IC50 (SK-MEL-2 [8]): 2890 nM; Activity (SK-MEL-2 [9]): inactive; Activity (SK-MEL-2 [10]): Active
CCCCCNc1cc[n+](CCCC[n+]2ccc(NCCCCC)cc2)cc1 | 1660 | > 25000 | 

The next lines start with results.

Kd [2] [nM] | Compound | IC50 (SK-MEL-2 [1]) [nM] | further results
1720 | CCCNc1cc[n+](CCCCCCCCCC[n+]2ccc(NCCC)cc2)cc1 | 8360 | 
2990 | CCCNc1cc[n+](CCCCCC[n+]2ccc(NCCC)cc2)cc1 |  | 
1850 | CCCCCNc1cc[n+](CCCCCCCCCC[n+]2ccc(NCCCCC)cc2)cc1 | 3000 | 
210 | CCCNc1cc[n+](CCCC[n+]2ccc(NCCC)cc2)cc1 |  | 
